In the NIST ThermoML archive (doi:10.1021/acs.jced.8b00213):
± gives the expanded uncertainty stated by the source.

Tests used:
[1] = refractive index (Na D-line) (dimensionless); xn = mol fraction of the nth substance listed; settings: 100 kPa, Liquid, Standard Abbe refractometry, x1 = 0.25
[2] = xn = mol fraction of the nth substance listed; settings: 100 kPa, Liquid, x1 = 0.25; for electrical conductivity: Alternating current cell with electrodes; for viscosity: Falling or rolling sphere viscometry; for speed of sound: Single path-length method; for mass density: Vibrating tube method

CCCC[N+](CCCC)(CCCC)Cc1ccccc1.[Cl-] [benzyltributylammonium chloride] + OCCOCCO
Settings	electrical conductivity, [2] [S/m]	mass density, [2] [kg/m3]	refractive index, [1]	speed of sound, [2] [m/s]	viscosity, [2] [mPa·s]
283.15 K	0.019 ± 0.001	1063.94 ± 11	1.4957 ± 0.0011	1706.8 ± 3.6	961.86 ± 96
288.15 K	0.025 ± 0.001	1060.76 ± 11	1.4945 ± 0.0011	1689.5 ± 3.6	644.25 ± 56
293.15 K	0.032 ± 0.001	1057.65 ± 11	1.4929 ± 0.0011	1673.2 ± 3.6	433.54 ± 32
298.15 K	0.04 ± 0.002	1054.57 ± 11	1.4909 ± 0.0011	1658.1 ± 3.5	310.37 ± 19
303.15 K	0.052 ± 0.002	1051.5 ± 11	1.4893 ± 0.0011	1643.5 ± 3.5	224.9 ± 11
308.15 K	0.066 ± 0.003	1048.41 ± 11	1.4878 ± 0.0011	1629.5 ± 3.5	168.37 ± 7.2
313.15 K	0.081 ± 0.003	1045.31 ± 11	1.486 ± 0.0011	1615.6 ± 3.5	125.21 ± 4.4
318.15 K	0.099 ± 0.004	1042.22 ± 10	1.4849 ± 0.0011	1602 ± 3.4	96.78 ± 2.8
323.15 K	0.115 ± 0.005	1039.12 ± 10	1.4836 ± 0.0011	1588.6 ± 3.4	76.23 ± 1.9
328.15 K	0.13 ± 0.005	1036.03 ± 10	1.4815 ± 0.0011	1575.3 ± 3.4	62.63 ± 1.4
333.15 K	0.154 ± 0.006	1032.94 ± 10	1.4804 ± 0.0011	1562.1 ± 3.4	50.43 ± 1.1
338.15 K	0.178 ± 0.007	1029.85 ± 10	1.4786 ± 0.0011	1549.2 ± 3.3	40.68 ± 0.9
343.15 K	0.207 ± 0.008	1026.78 ± 10	1.4776 ± 0.0011	1536.7 ± 3.3	32.76 ± 0.73
